Earlier results on one compound are cited in patent US10034864B2, “1,2,5-oxadiazoles as inhibitors of indoleamine 2,3-dioxygenase” (Incyte Corporation, priority 2008, dated 2018).

One series concerns LLC tumors. The settings on record: LLC tumors in C57Bl/6 mice, versus placebo (Friberg 2002).
Another series relates to P815 tumor. The settings on record: pre-immunized immune-competent mice challenged with tumor cells (Uyttenhove 2003).

Consider `Cn1cc(C[C@H](N)C(=O)O)c2ccccc21` [Example 1-MT, 1-methyl-tryptophan], for which, in the series on LLC tumors, the formation of tumors result was “markedly delayed”. Moreover, in the series with P815 tumor, the growth of tumors result is “inhibited”.
